Data as given in ChEMBL document CHEMBL5303573, “Mapping human microbiome drug metabolism by gut bacteria and their genes” (Nature, 2019).

Details: roseburia intestinalis, 12 h, 2 µM
Description: The drug is tested on Roseburia intestinalis strain: L1-82 for biotransformation. The drug concentrations were measured before and after a 12-h incubation by liquid-chromatography-coupled mass spectrometry (LC–MS)

**Q.** Which “Bacterial Biotransformation” value does the source give for `CCOc1ccc2nc(S(N)(=O)=O)sc2c1` [ETHOXZOLAMIDE] here?
**A.** Compound metabolized

**Q.** With `CC(=O)Oc1ccc(C(c2ccc(OC(C)=O)cc2)c2ccccn2)cc1` [BISACODYL] as the compound, how does the “Bacterial Biotransformation” value read?
**A.** Compound metabolized

**Q.** For `CNC(=C[N+](=O)[O-])NCCSCc1ccc(CN(C)C)o1` [RANITIDINE], which “Bacterial Biotransformation” value is on record?
**A.** Compound metabolized

Details: bacteroides eggerthii, 12 h, 2 µM
Description: The drug is tested on Bacteroides eggerthii strain: DSM20697 for biotransformation. The drug concentrations were measured before and after a 12-h incubation by liquid-chromatography-coupled mass spectrometry (LC–MS)

**Q.** With `CCOc1ccc2nc(S(N)(=O)=O)sc2c1` [ETHOXZOLAMIDE] as the compound, how does the “Bacterial Biotransformation” value read?
**A.** Compound metabolized

**Q.** Which “Bacterial Biotransformation” value does the source give for `CC(=O)Oc1ccc(C(c2ccc(OC(C)=O)cc2)c2ccccn2)cc1` [BISACODYL] here?
**A.** Compound metabolized

**Q.** With `CNC(=C[N+](=O)[O-])NCCSCc1ccc(CN(C)C)o1` [RANITIDINE] as the compound, how does the “Bacterial Biotransformation” value read?
**A.** Compound NOT metabolized

Details: bacteroides thetaiotaomicron, 12 h, 2 µM
Description: The drug is tested on Bacteroides thetaiotaomicron strain: 7330 for biotransformation. The drug concentrations were measured before and after a 12-h incubation by liquid-chromatography-coupled mass spectrometry (LC–MS)

**Q.** For `CCOc1ccc2nc(S(N)(=O)=O)sc2c1` [ETHOXZOLAMIDE], which “Bacterial Biotransformation” value is on record?
**A.** Compound metabolized

**Q.** With `CC(=O)Oc1ccc(C(c2ccc(OC(C)=O)cc2)c2ccccn2)cc1` [BISACODYL] as the compound, how does the “Bacterial Biotransformation” value read?
**A.** Compound metabolized

**Q.** With `CNC(=C[N+](=O)[O-])NCCSCc1ccc(CN(C)C)o1` [RANITIDINE] as the compound, how does the “Bacterial Biotransformation” value read?
**A.** Compound NOT metabolized

Assay: The drug is tested on Escherichia coli strain: BW25113 for biotransformation. The drug concentrations were measured before and after a 12-h incubation by liquid-chromatography-coupled mass spectrometry (LC–MS)
Details: 2 µM

**Q.** With `CCOc1ccc2nc(S(N)(=O)=O)sc2c1` [ETHOXZOLAMIDE] as the compound, how does the “Bacterial Biotransformation” value read?
**A.** Compound metabolized

**Q.** Which “Bacterial Biotransformation” value does the source give for `CC(=O)Oc1ccc(C(c2ccc(OC(C)=O)cc2)c2ccccn2)cc1` [BISACODYL] here?
**A.** Compound metabolized

**Q.** With `CNC(=C[N+](=O)[O-])NCCSCc1ccc(CN(C)C)o1` [RANITIDINE] as the compound, how does the “Bacterial Biotransformation” value read?
**A.** Compound NOT metabolized

Assay: The drug is tested on Clostridium asparagiforme strain: DSM15981 for biotransformation. The drug concentrations were measured before and after a 12-h incubation by liquid-chromatography-coupled mass spectrometry (LC–MS)
Format: ADME
Design: dose 2 uM, timepoint 0 vs 12 hours
Details: enterocloster asparagiformis, 2 µM

**Q.** For `CCOc1ccc2nc(S(N)(=O)=O)sc2c1` [ETHOXZOLAMIDE], which “Bacterial Biotransformation” value is on record?
**A.** Compound metabolized

**Q.** For `CC(=O)Oc1ccc(C(c2ccc(OC(C)=O)cc2)c2ccccn2)cc1` [BISACODYL], which “Bacterial Biotransformation” value is on record?
**A.** Compound metabolized

**Q.** Which “Bacterial Biotransformation” value does the source give for `CNC(=C[N+](=O)[O-])NCCSCc1ccc(CN(C)C)o1` [RANITIDINE] here?
**A.** Compound metabolized

Assay: The drug is tested on Dorea formicigenerans strain: ATCC27755 for biotransformation. The drug concentrations were measured before and after a 12-h incubation by liquid-chromatography-coupled mass spectrometry (LC–MS)
Details: 2 µM

**Q.** Which “Bacterial Biotransformation” value does the source give for `CCOc1ccc2nc(S(N)(=O)=O)sc2c1` [ETHOXZOLAMIDE] here?
**A.** Compound metabolized

**Q.** With `CC(=O)Oc1ccc(C(c2ccc(OC(C)=O)cc2)c2ccccn2)cc1` [BISACODYL] as the compound, how does the “Bacterial Biotransformation” value read?
**A.** Compound metabolized

**Q.** For `CNC(=C[N+](=O)[O-])NCCSCc1ccc(CN(C)C)o1` [RANITIDINE], which “Bacterial Biotransformation” value is on record?
**A.** Compound metabolized

Assay: The drug is tested on Blautia luti strain: DSM14534 for biotransformation. The drug concentrations were measured before and after a 12-h incubation by liquid-chromatography-coupled mass spectrometry (LC–MS)
Format: ADME
Design: dose 2 uM, timepoint 0 vs 12 hours
Details: 2 µM

**Q.** For `CCOc1ccc2nc(S(N)(=O)=O)sc2c1` [ETHOXZOLAMIDE], which “Bacterial Biotransformation” value is on record?
**A.** Compound metabolized

**Q.** Which “Bacterial Biotransformation” value does the source give for `CC(=O)Oc1ccc(C(c2ccc(OC(C)=O)cc2)c2ccccn2)cc1` [BISACODYL] here?
**A.** Compound metabolized

**Q.** Which “Bacterial Biotransformation” value does the source give for `CNC(=C[N+](=O)[O-])NCCSCc1ccc(CN(C)C)o1` [RANITIDINE] here?
**A.** Compound metabolized

Assay: The drug is tested on Bacteroides fragilis strain: HMW610 for biotransformation. The drug concentrations were measured before and after a 12-h incubation by liquid-chromatography-coupled mass spectrometry (LC–MS)
Details: 2 µM

**Q.** Which “Bacterial Biotransformation” value does the source give for `CCOc1ccc2nc(S(N)(=O)=O)sc2c1` [ETHOXZOLAMIDE] here?
**A.** Compound NOT metabolized

**Q.** For `CC(=O)Oc1ccc(C(c2ccc(OC(C)=O)cc2)c2ccccn2)cc1` [BISACODYL], which “Bacterial Biotransformation” value is on record?
**A.** Compound metabolized

**Q.** For `CNC(=C[N+](=O)[O-])NCCSCc1ccc(CN(C)C)o1` [RANITIDINE], which “Bacterial Biotransformation” value is on record?
**A.** Compound NOT metabolized

Assay: The drug is tested on Collinsella intestinalis strain: DSM13280 for biotransformation. The drug concentrations were measured before and after a 12-h incubation by liquid-chromatography-coupled mass spectrometry (LC–MS)
Details: 2 µM

**Q.** Which “Bacterial Biotransformation” value does the source give for `CCOc1ccc2nc(S(N)(=O)=O)sc2c1` [ETHOXZOLAMIDE] here?
**A.** Compound metabolized

**Q.** With `CC(=O)Oc1ccc(C(c2ccc(OC(C)=O)cc2)c2ccccn2)cc1` [BISACODYL] as the compound, how does the “Bacterial Biotransformation” value read?
**A.** Compound metabolized

**Q.** For `CNC(=C[N+](=O)[O-])NCCSCc1ccc(CN(C)C)o1` [RANITIDINE], which “Bacterial Biotransformation” value is on record?
**A.** Compound metabolized

Assay: The drug is tested on Eubacterium ventriosum strain: ATCC27560 for biotransformation. The drug concentrations were measured before and after a 12-h incubation by liquid-chromatography-coupled mass spectrometry (LC–MS)
Format: ADME
Design: dose 2 uM, timepoint 0 vs 12 hours
Details: 2 µM

**Q.** Which “Bacterial Biotransformation” value does the source give for `CCOc1ccc2nc(S(N)(=O)=O)sc2c1` [ETHOXZOLAMIDE] here?
**A.** Compound metabolized

**Q.** Which “Bacterial Biotransformation” value does the source give for `CC(=O)Oc1ccc(C(c2ccc(OC(C)=O)cc2)c2ccccn2)cc1` [BISACODYL] here?
**A.** Compound metabolized

**Q.** With `CNC(=C[N+](=O)[O-])NCCSCc1ccc(CN(C)C)o1` [RANITIDINE] as the compound, how does the “Bacterial Biotransformation” value read?
**A.** Compound metabolized

Details: victivallis vadensis, 12 h, 2 µM
Description: The drug is tested on Victivallis vadensis strain: ATCC BAA-548 for biotransformation. The drug concentrations were measured before and after a 12-h incubation by liquid-chromatography-coupled mass spectrometry (LC–MS)

**Q.** Which “Bacterial Biotransformation” value does the source give for `CCOc1ccc2nc(S(N)(=O)=O)sc2c1` [ETHOXZOLAMIDE] here?
**A.** Compound metabolized

**Q.** Which “Bacterial Biotransformation” value does the source give for `CC(=O)Oc1ccc(C(c2ccc(OC(C)=O)cc2)c2ccccn2)cc1` [BISACODYL] here?
**A.** Compound metabolized

**Q.** Which “Bacterial Biotransformation” value does the source give for `CNC(=C[N+](=O)[O-])NCCSCc1ccc(CN(C)C)o1` [RANITIDINE] here?
**A.** Compound NOT metabolized

Assay: The drug is tested on Blautia hansenii strain: DSM20583 for biotransformation. The drug concentrations were measured before and after a 12-h incubation by liquid-chromatography-coupled mass spectrometry (LC–MS)
Details: 2 µM

**Q.** With `CCOc1ccc2nc(S(N)(=O)=O)sc2c1` [ETHOXZOLAMIDE] as the compound, how does the “Bacterial Biotransformation” value read?
**A.** Compound metabolized

**Q.** With `CC(=O)Oc1ccc(C(c2ccc(OC(C)=O)cc2)c2ccccn2)cc1` [BISACODYL] as the compound, how does the “Bacterial Biotransformation” value read?
**A.** Compound metabolized

**Q.** Which “Bacterial Biotransformation” value does the source give for `CNC(=C[N+](=O)[O-])NCCSCc1ccc(CN(C)C)o1` [RANITIDINE] here?
**A.** Compound metabolized

Assay: The drug is tested on Bacteroides vulgatus strain: ATCC8482 for biotransformation. The drug concentrations were measured before and after a 12-h incubation by liquid-chromatography-coupled mass spectrometry (LC–MS)
Details: phocaeicola vulgatus, 2 µM

**Q.** Which “Bacterial Biotransformation” value does the source give for `CCOc1ccc2nc(S(N)(=O)=O)sc2c1` [ETHOXZOLAMIDE] here?
**A.** Compound NOT metabolized

**Q.** For `CC(=O)Oc1ccc(C(c2ccc(OC(C)=O)cc2)c2ccccn2)cc1` [BISACODYL], which “Bacterial Biotransformation” value is on record?
**A.** Compound metabolized

**Q.** For `CNC(=C[N+](=O)[O-])NCCSCc1ccc(CN(C)C)o1` [RANITIDINE], which “Bacterial Biotransformation” value is on record?
**A.** Compound metabolized

Details: segatella copri, 12 h, 2 µM
Description: The drug is tested on Prevotella copri strain: DSM18205 for biotransformation. The drug concentrations were measured before and after a 12-h incubation by liquid-chromatography-coupled mass spectrometry (LC–MS)

**Q.** With `CCOc1ccc2nc(S(N)(=O)=O)sc2c1` [ETHOXZOLAMIDE] as the compound, how does the “Bacterial Biotransformation” value read?
**A.** Compound metabolized

**Q.** Which “Bacterial Biotransformation” value does the source give for `CC(=O)Oc1ccc(C(c2ccc(OC(C)=O)cc2)c2ccccn2)cc1` [BISACODYL] here?
**A.** Compound metabolized

**Q.** Which “Bacterial Biotransformation” value does the source give for `CNC(=C[N+](=O)[O-])NCCSCc1ccc(CN(C)C)o1` [RANITIDINE] here?
**A.** Compound metabolized

Assay: The drug is tested on Bacteroides cellulosilyticus strain: DSM14838 for biotransformation. The drug concentrations were measured before and after a 12-h incubation by liquid-chromatography-coupled mass spectrometry (LC–MS)
Details: 2 µM

**Q.** Which “Bacterial Biotransformation” value does the source give for `CCOc1ccc2nc(S(N)(=O)=O)sc2c1` [ETHOXZOLAMIDE] here?
**A.** Compound metabolized

**Q.** For `CC(=O)Oc1ccc(C(c2ccc(OC(C)=O)cc2)c2ccccn2)cc1` [BISACODYL], which “Bacterial Biotransformation” value is on record?
**A.** Compound metabolized

**Q.** With `CNC(=C[N+](=O)[O-])NCCSCc1ccc(CN(C)C)o1` [RANITIDINE] as the compound, how does the “Bacterial Biotransformation” value read?
**A.** Compound metabolized

Assay: The drug is tested on Subdoligranulum variabile strain: DSM15176 for biotransformation. The drug concentrations were measured before and after a 12-h incubation by liquid-chromatography-coupled mass spectrometry (LC–MS)
Details: 2 µM

**Q.** With `CCOc1ccc2nc(S(N)(=O)=O)sc2c1` [ETHOXZOLAMIDE] as the compound, how does the “Bacterial Biotransformation” value read?
**A.** Compound metabolized

**Q.** Which “Bacterial Biotransformation” value does the source give for `CC(=O)Oc1ccc(C(c2ccc(OC(C)=O)cc2)c2ccccn2)cc1` [BISACODYL] here?
**A.** Compound metabolized

**Q.** With `CNC(=C[N+](=O)[O-])NCCSCc1ccc(CN(C)C)o1` [RANITIDINE] as the compound, how does the “Bacterial Biotransformation” value read?
**A.** Compound metabolized

Assay: The drug is tested on Bacteroides sp. WH2 strain: WH2 for biotransformation. The drug concentrations were measured before and after a 12-h incubation by liquid-chromatography-coupled mass spectrometry (LC–MS)
Details: bacteroides sp. wh2, 12 h, 2 µM

**Q.** Which “Bacterial Biotransformation” value does the source give for `CCOc1ccc2nc(S(N)(=O)=O)sc2c1` [ETHOXZOLAMIDE] here?
**A.** Compound metabolized

**Q.** Which “Bacterial Biotransformation” value does the source give for `CC(=O)Oc1ccc(C(c2ccc(OC(C)=O)cc2)c2ccccn2)cc1` [BISACODYL] here?
**A.** Compound metabolized

Details: bacteroides thetaiotaomicron, 12 h, 2 µM
Remark: another data set of the same source
Description: The drug is tested on Bacteroides thetaiotaomicron strain: VPI-5482 for biotransformation. The drug concentrations were measured before and after a 12-h incubation by liquid-chromatography-coupled mass spectrometry (LC–MS)

**Q.** For `CCOc1ccc2nc(S(N)(=O)=O)sc2c1` [ETHOXZOLAMIDE], which “Bacterial Biotransformation” value is on record?
**A.** Compound metabolized

**Q.** Which “Bacterial Biotransformation” value does the source give for `CC(=O)Oc1ccc(C(c2ccc(OC(C)=O)cc2)c2ccccn2)cc1` [BISACODYL] here?
**A.** Compound metabolized

**Q.** With `CNC(=C[N+](=O)[O-])NCCSCc1ccc(CN(C)C)o1` [RANITIDINE] as the compound, how does the “Bacterial Biotransformation” value read?
**A.** Compound NOT metabolized

Details: akkermansia muciniphila, 12 h, 2 µM
Description: The drug is tested on Akkermansia muciniphila strain: ATCC BAA-835 for biotransformation. The drug concentrations were measured before and after a 12-h incubation by liquid-chromatography-coupled mass spectrometry (LC–MS)

**Q.** Which “Bacterial Biotransformation” value does the source give for `CCOc1ccc2nc(S(N)(=O)=O)sc2c1` [ETHOXZOLAMIDE] here?
**A.** Compound metabolized

**Q.** Which “Bacterial Biotransformation” value does the source give for `CC(=O)Oc1ccc(C(c2ccc(OC(C)=O)cc2)c2ccccn2)cc1` [BISACODYL] here?
**A.** Compound metabolized

**Q.** For `CNC(=C[N+](=O)[O-])NCCSCc1ccc(CN(C)C)o1` [RANITIDINE], which “Bacterial Biotransformation” value is on record?
**A.** Compound metabolized

Assay: The drug is tested on Bifidobacterium breve strain: DSM20213 for biotransformation. The drug concentrations were measured before and after a 12-h incubation by liquid-chromatography-coupled mass spectrometry (LC–MS)
Details: 2 µM

**Q.** Which “Bacterial Biotransformation” value does the source give for `CCOc1ccc2nc(S(N)(=O)=O)sc2c1` [ETHOXZOLAMIDE] here?
**A.** Compound metabolized

**Q.** With `CC(=O)Oc1ccc(C(c2ccc(OC(C)=O)cc2)c2ccccn2)cc1` [BISACODYL] as the compound, how does the “Bacterial Biotransformation” value read?
**A.** Compound metabolized

**Q.** For `CNC(=C[N+](=O)[O-])NCCSCc1ccc(CN(C)C)o1` [RANITIDINE], which “Bacterial Biotransformation” value is on record?
**A.** Compound metabolized
